Source: patent US20030166561A1, “Peptide” (priority 1999, published 2003)
Where no end group is shown, it is not given here.

Experiments:
[1] = system: βTC6-F7 cells; experiment: Effect of preptin on glucose-stimulated insulin secretion from cultured βTC6-F7 cells; type: cell-based, murine; details: 10 mM glucose
Description: Insulin and amylin are known to modulate β-cell insulin secretion via presumed autocrine mechanisms. The effect of preptin on insulin secretion was therefore tested using a β-cell secretagogue protocol βTC6-F7 cells were subcultured at passage #52 into 24-well plates at 4×10^5 cells/well. They were grown for 3d in nDMEM to 80% confluence, then washed twice with KRB-HEPES. Stock preptin was serially diluted in incubation medium containing 10 mM D(+) glucose to yield final concentrations of 150, 75, 25, 5, 1 and 0.1 nM. Cells were then washed, and 1 ml/well of incubation medium containing 10 mM and-various final preptin concentrations was added to each well. Cells were incubated at 37° C. for 2 h, then medium removed. Cells were washed thrice with PBS, then lysed with 500 μl of lysis buffer. Incubation medium was centrifuged (16,000×g, 3 min) and the supernatant separated from pelleted debris. Incubation medium and lysates were then analyzed for insulin, preptin and protein as above.

[2] = system: isolated perfused rat pancreas; experiment: Insulin secretion from glucose-stimulated isolated-perfused rat pancreas (infusion of preptin or anti-preptin γ-globulin); details: 75 nM preptin, 20 mM glucose; compared with control (0-added preptin); p=0.03
Description: Pancreases from fasted adult male Wistar rats (300±25 g) were isolated and prepared (Grodsky and Fanska 1975). Pancreases were perfused with KHB supplemented with 4% dextran, 0.5% BSA, 3 mM arginine and 5.5 mM glucose. Perfusate was gassed with 95% 02:5% CO2 and infused by peristaltic pump (2.7 ml.min^−1 without re-circulation). Pancreases were perfused and equilibrated for 20 min prior to each 70 min perfusion experiment. 10 min into the experiment either carrier buffer (0.1% BSA in 0.9% NaCl), preptin dissolved in carrier buffer, anti-preptin Ig or non-immunised rabbit Ig (both diluted in carrier buffer) were introduced via a side-arm infusion (final concentrations in perfusate: 75 nM preptin; 35 μg.ml^−1 Ig). In addition, at 25 min, glucose was infused for 20 min (final concentration in perfusate: 20 mM). […]
Pancreases were perfused with KHB supplemented with 4% dextran, 0.5% BSA, 3 mM-arginine and 5.5 mM glucose (final concentrations). […] 10-min into the experiment either anti-preptin γ-globulin or non-immune rabbit γ-globulin were introduced via a side-arm infusion (final γ-globulin concentration in perfusate: 35 μg.ml^−1 in carrier buffer (0.1% BSA in 0.9% NaCl). In addition, at 25-min, glucose was infused for 20-min (measured final concentration in perfusate: 20 mM). Continuous 1-min fractions were collected on ice and assayed for insulin (RIA).

DVSTSQAVLPDDFPRYPVGKFFKFDTWRQSAGRL [synthetic rat preptin, 34 amino acid peptide, Asp69-Leu102 of rat proIGF-II E-peptide, chemically synthesized using Fmoc chemistry]
preptin concentration at which effect on insulin secretion reached maximal [1]: 75 nM | glucose-stimulated secretion of insulin ([1]; 2 h, 37° C., compared to controls (0 added preptin)): enhanced | preptin concentration at which significant effects on insulin secretion were detected ([1]; compared to controls (0 added preptin)): ≥ 0.1 nM | enhancement of second phase of insulin secretion (areas-under-curve) [2]: 30%
